Data as given in publication PMC5418711, “Safety and efficacy of the choline analogue SAR97276 for malaria treatment: results of two phase 2, open-label, multicenter trials in African patients” (Malaria Journal, 2017).

What was measured:
[1] = Study 1: safety assessment (TEAEs, laboratory tests, ECG); format: in vivo, human; conditions: for QTc interval - change from baseline Borderline: Incr. from B 30-60 ms / QTc interval - change from baseline Prolonged: Incr. from B > 60 ms / QTc interval Prolonged: > 450 ms (m); > 470 ms (f) / QTc interval ≥ 500 ms: TEAE period
Description: Follow-up visits were done on day 6, 8, 14 ± 2, 21 ± 2, 28 ± 2 (Study 1); and day 7, 14 ± 2, 21 ± 2, 28 ± 2 (Study 2). […] Parasitemia was determined microscopically by Giemsa stained thick blood smear by two trained microscopists blinded to each other. […] For Study 2 respiratory parameters (respiratory rate, peak flow, efficiency of cough) were also checked at baseline and 30 min after first dose on day 1, 2 and 3.
Treatment emergent adverse events (TEAEs) were defined as AEs that developed or worsened during the treatment period until day 6 following the end of study treatment.

malaria monkey model = system: malaria monkey model; set-up: method as in PMID 11847346, PMID 15492221, PMID 12878525; conditions: cited from earlier work
[2] = system: P. falciparum laboratory and clinical isolates; set-up: method as in PMID 11847346, PMID 15492221; conditions: cited from earlier work
[3] = Group 1A, one patient, three days after study medication
[4] = Group 1A: 1 day IM 0.18 mg/kg, adults, N=34
[5] = Group 1A: 1 day IM 0.18 mg/kg, adults
[6] = Group 1B: 3 days IM 0.18 mg/kg, adults, N=30
[7] = Group 1B: 3 days IM 0.18 mg/kg, adults
[8] = Group 1C: 1 day IV 0.14 mg/kg, adults, N=30
[9] = Group 1C: 1 day IV 0.14 mg/kg, adults
[10] = Group 1D: 3 days IM 0.18 mg/kg, children, N=19
[11] = Group 1D: 3 days IM 0.18 mg/kg, children

Cc1c(CCO)sc[n+]1CCCCCCCCCCCC[n+]1csc(CCO)c1C [SAR97276A]
ALT increase in the patient with cytolytic hepatitis [1, 3]: 4.5 × upper limit than normal (ULN)
AST increase in the patient with cytolytic hepatitis [1, 3]: 11 × ULN
Total bilirubin in the patient with cytolytic hepatitis [1, 3]: ≥ 1.5 × ULN
Patients who did not complete study treatment [1, 4]: 0
Patients with any TEAE [1, 4]: 18 (52.9%)
TEAE: Arthralgia [1, 4]: 1 (2.9%)
TEAE: Convulsion [1, 4]: 0
TEAE: Cough [1, 4]: 2 (5.9%)
TEAE: Cytolytic hepatitis [1, 4]: 1 (2.9%)
TEAE: Dizziness [1, 4]: 1 (2.9%)
TEAE: Eyelid pruritus [1, 4]: 0
TEAE: Gastrointestinal disorders [1, 4]: 3 (8.8%)
TEAE: General Disorders/Administration site disorders [1, 4]: 3 (8.8%)
TEAE: Headache [1, 4]: 4 (11.8%)
TEAE: Hypertension [1, 4]: 0
TEAE: Malaria [1, 4]: 2 (5.9%)
TEAE: Neck pain [1, 4]: 2 (5.9%)
TEAE: Paraesthesia [1, 4]: 0
TEAE: Pneumonia [1, 4]: 1 (2.9%)
TEAE: Pruritus [1, 4]: 0
TEAE: Rhinitis [1, 4]: 2 (5.9%)
TEAE: Thrombocytopenia [1, 4]: 0
TEAE: Urticaria [1, 4]: 1 (2.9%)
TEAE: Vertigo [1, 4]: 2 (5.9%)
QTc interval - change from baseline Borderline: Incr. from B 30-60 ms [1, 5]: 0/33
QTc interval - change from baseline Prolonged: Incr. from B > 60 ms [1, 5]: 0/33
QTc interval Prolonged: > 450 ms (m); > 470 ms (f) [1, 5]: 0/33
QTc interval ≥ 500 ms [1, 5]: 0/33
Further patients with an elevated AST (> 3 x ULN), apart from the SAE patient ([1]; Group 1A: adults, single IM dose): one
Patients who did not complete study treatment [1, 6]: 0
Patients with any TEAE [1, 6]: 18 (60%)
Patients with any serious AE [1, 6]: 0
TEAE: Bradycardia [1, 6]: 0
TEAE: Convulsion [1, 6]: 0
TEAE: Cough [1, 6]: 2 (6.7%)
TEAE: Cytolytic hepatitis [1, 6]: 0
TEAE: Dizziness [1, 6]: 1 (3.3%)
TEAE: Eyelid pruritus [1, 6]: 0
TEAE: Gastrointestinal disorders [1, 6]: 7 (23.3%)
TEAE: General Disorders/Administration site disorders [1, 6]: 1 (3.3%)
TEAE: Headache [1, 6]: 4 (13.3%)
TEAE: Hypertension [1, 6]: 1 (3.3%)
TEAE: Malaria [1, 6]: 0
TEAE: Neck pain [1, 6]: 1 (3.3%)
TEAE: Paraesthesia [1, 6]: 1 (3.3%)
TEAE: Pneumonia [1, 6]: 0
TEAE: Pruritus [1, 6]: 1 (3.3%)
TEAE: Rhinitis [1, 6]: 0
TEAE: Tachycardia [1, 6]: 1 (3.3%)
TEAE: Thrombocytopenia [1, 6]: 0
TEAE: Urticaria [1, 6]: 0
TEAE: Vertigo [1, 6]: 2 (6.7%)
QTc interval - change from baseline Borderline: Incr. from B 30-60 ms [1, 7]: 0/30
QTc interval - change from baseline Prolonged: Incr. from B > 60 ms [1, 7]: 0/30
QTc interval Prolonged: > 450 ms (m); > 470 ms (f) [1, 7]: 0/30
QTc interval ≥ 500 ms [1, 7]: 0/30
Patients who did not complete study treatment [1, 8]: 0
Patients with any TEAE [1, 8]: 14 (46.7%)
Patients with any serious AE [1, 8]: 0
TEAE: Arthralgia [1, 8]: 1 (3.3%)
TEAE: Bradycardia [1, 8]: 0
TEAE: Convulsion [1, 8]: 0
TEAE: Cough [1, 8]: 1 (3.3%)
TEAE: Cytolytic hepatitis [1, 8]: 0
TEAE: Dizziness [1, 8]: 2 (6.7%)
TEAE: Eyelid pruritus [1, 8]: 0
TEAE: Gastrointestinal disorders [1, 8]: 1 (3.3%)
TEAE: General Disorders/Administration site disorders [1, 8]: 0
TEAE: Headache [1, 8]: 3 (10%)
TEAE: Hypertension [1, 8]: 0
TEAE: Malaria [1, 8]: 0
TEAE: Neck pain [1, 8]: 0
TEAE: Paraesthesia [1, 8]: 0
TEAE: Pneumonia [1, 8]: 0
TEAE: Pruritus [1, 8]: 0
TEAE: Rhinitis [1, 8]: 0
TEAE: Tachycardia [1, 8]: 0
TEAE: Thrombocytopenia [1, 8]: 0
TEAE: Urticaria [1, 8]: 0
TEAE: Vertigo [1, 8]: 0
QTc interval - change from baseline Prolonged: Incr. from B > 60 ms [1, 9]: 0/30
QTc interval Prolonged: > 450 ms (m); > 470 ms (f) [1, 9]: 0/30
QTc interval ≥ 500 ms [1, 9]: 0/30
Patients with any TEAE [1, 10]: 11 (57.9%)
TEAE: Arthralgia [1, 10]: 0
TEAE: Bradycardia [1, 10]: 0
TEAE: Convulsion [1, 10]: 1 (5.3%)
TEAE: Cough [1, 10]: 1 (5.3%)
TEAE: Cytolytic hepatitis [1, 10]: 0
TEAE: Dizziness [1, 10]: 0
TEAE: Eyelid pruritus [1, 10]: 1 (5.3%)
TEAE: Gastrointestinal disorders [1, 10]: 5 (26.3%)
TEAE: General Disorders/Administration site disorders [1, 10]: 1 (5.3%)
TEAE: Headache [1, 10]: 3 (15.8%)
TEAE: Hypertension [1, 10]: 0
TEAE: Malaria [1, 10]: 0
TEAE: Neck pain [1, 10]: 0
TEAE: Paraesthesia [1, 10]: 0
TEAE: Pneumonia [1, 10]: 0
TEAE: Pruritus [1, 10]: 0
TEAE: Rhinitis [1, 10]: 0
TEAE: Tachycardia [1, 10]: 0
TEAE: Urticaria [1, 10]: 0
TEAE: Vertigo [1, 10]: 0
QTc interval - change from baseline Borderline: Incr. from B 30-60 ms [1, 11]: 0/18
QTc interval - change from baseline Prolonged: Incr. from B > 60 ms [1, 11]: 0/18
QTc interval Prolonged: > 450 ms (m); > 470 ms (f) [1, 11]: 0/18
QTc interval ≥ 500 ms [1, 11]: 0/18
Deaths ([1]; Study 1): No deaths
ECG abnormalities, clinical significance ([1]; Study 1): No clinical significant abnormalities
Ophthalmologic disorders possibly related to SAR97276A ([1]; Study 1): No ophthalmologic disorders
Participants with alkaline phosphatase elevated (> 1.5 x ULN) ([1]; Study 1): 19
SAEs regarded as related to SAR97276A by the investigators ([1]; Study 1): None
Tolerability ([1]; Study 1): well tolerated
Patients with a serious adverse event (SAE), total ([1]; Study 1, all groups): four
Patients who experienced a TEAE, all cohorts ([1]; Study 1, out of 113 patients): 61 (54%)
Efficacy in malaria monkey model (malaria monkey model): highly efficacious
In vitro-activity against P. falciparum laboratory and clinical isolates [2]: powerful in vitro-activity
